According to patent publication US20230355612A1 (SHANGHAI BOCIMED PHARMACEUTICAL CO., LTD., priority 2020, published 2023):
Converted amounts (≈) assume the structure as drawn. Where a name gives a salt, the structure may show the parent alone. Read-outs that look alike come from different tables or passages of the source.

What was measured:
physchem = conditions: for solubility at 24 h: 37 °C, thermodynamic from solid
Experimental: The mixtures were shaken at 37° C. for 24 h and filtered through 0.45 μm aqueous-phase filter membranes. The filtrates were collected and the solubility was determined by high performance liquid chromatography. pH3, pH4, pH5 and pH6 represent acetate buffer solutions, and pH7, pH7.4, pH8 and pH9 represent phosphate buffer solutions.

[1] = Related substances stability of solids under stress conditions (HPLC); assay type: physicochemical; conditions: for Total related substances: left to stand under these conditions for 10 days
Experimental: (§1) Unless otherwise indicated, the starting materials and reagents in the examples below are either commercially available or prepared by one skilled in the art according to methods known in the art. The salt compounds of the examples were tested by nuclear magnetic resonance (^1H-NMR), X-ray powder diffraction (XRPD), differential scanning calorimetry (DSC), thermogravimetric analysis (TGA), hot-stage polarized light microscopy (PLM) and high performance liquid chromatography (HPLC), and the test parameters are as follows: • (1) The ^1H-NMR measurements were taken on a Bruker Advance III500M nuclear magnetic resonance spectrometer at a frequency of […] with deuterated DMSO as the solvent. • (2) The DSC measurements were taken on a sealed pan device in TA Instruments model Q2000: samples (about 1-2 mg) were weighed in aluminum pans and transferred to the instrument for measurement. The test parameters are as follows: the instrument was equilibrated at 30° C. and heated to 300° C. at a rate of 10° C./min, data was collected, and the experiments were conducted in a nitrogen atmosphere. • (3) The TGA measurements were taken on a TA Instruments model Q500 device: samples (about 2-5 mg) were weighed in aluminum pans and transferred to the instrument for measurement. The test parameters are as follows: the instrument was heated to 350° C. at a rate of 10° C./min, data was collected, and the experiments were conducted in a nitrogen atmosphere. • (4) The XRPD measurements were taken on a Bruker model D8 Advance X-ray powder diffractometer using a round zero background single crystal silicon sample stage. The scan parameters are as follows: voltage, 40 kv; current, 40 mA; scan range, 3-45°; scan increment, 0.02°; scan mode, continuous scan. • (5) The PLM analyses were performed under a model DYP990/TPH350 hot stage polarizing microscope from Shanghai Dian Ying Optical Instruments: a small amount of sample was dispersed in a glass slide and photographed using an eyepiece lens at a magnification of 10× and an objective lens at a magnification of 5-40×. • (6) Methods of measuring HPLC content and detecting related substances: […]

[2] = In vitro dissolution simulation experiment, phosphate buffer pH 7.4; assay type: physicochemical; conditions: pH 7.4 phosphate buffer, 37° C.
Experimental: The mixtures were shaken at 37° C.

[3] = Crystalline form stability of solids under stress conditions (XRPD); assay type: physicochemical
Experimental: as §1

[4] = Pharmacokinetic experiment in rats (plasma cariprazine, LC-MS/MS); assay type: in vivo, SD rats
[5] = left to stand under these conditions for 10 days

| Compound | Total related substances [1] | Concentration ([2]; 1 (h)) | Concentration ([2]; 3.5 (h)) | Concentration ([2]; 5 (h)) | Concentration ([2]; 7 (h)) | Concentration ([2]; 24 (h)) | other results |
| --- | --- | --- | --- | --- | --- | --- | --- |
| cariprazine malate |  |  |  |  |  |  | Solubility (physchem): >1065.7 µg/mL; Solubility (physchem; pH 3): >266.4 µg/mL; Solubility (physchem; pH 5): >228.4 µg/mL; Solubility (physchem; pH 7): <304.5 µg/mL; Solubility (physchem; pH 9): <152.2 µg/mL |
| CN(C)C(=O)N[C@H]1CC[C@H](CCN2CCN(c3cccc(Cl)c3Cl)CC2)CC1 [cariprazine hydrochloride] |  |  |  |  |  |  | solubility at 24 h (physchem; pH 3, aqueous buffer): 12300 µg/mL; solubility at 24 h (physchem; pH 4, aqueous buffer): 9770 µg/mL; solubility at 24 h (physchem; pH 5, aqueous buffer): 1080 µg/mL; solubility at 24 h (physchem; water): ~11000 µg/mL |
| CN(C)C(=O)NC1CCC(CCN2CCN(c3cccc(Cl)c3Cl)CC2)CC1 (centres unmarked) [Crystalline form G of cariprazine embonate] | remained substantially unchanged | 1300 ng/mL | 4510 ng/mL | 2280 ng/mL | 1840 ng/mL | 8050 ng/mL |  |
| CN(C)C(=O)NC1CCC(CCN2CCN(c3cccc(Cl)c3Cl)CC2)CC1 (centres unmarked) [cariprazine embonate] |  |  |  |  |  |  | Crystalline form ([3]; high-humidity conditions and accelerated conditions): change into crystalline form A of cariprazine embonate; Crystalline form ([3]; high-temperature conditions and illuminated conditions): its crystalline form did not change; Absorption after oral administration ([4]; rat, in vivo, po, 0.3 mg/kg): fast absorption |
| CN(C)C(=O)NC1CCC(CCN2CCN(c3cccc(Cl)c3Cl)CC2)CC1 (centres unmarked) [Crystalline form B of cariprazine embonate] | remained substantially unchanged | 5300 ng/mL | 4000 ng/mL | 5200 ng/mL | 2200 ng/mL | 1700 ng/mL |  |
| cariprazine succinate |  |  |  |  |  |  | Solubility (physchem): >261.2 µg/mL; Solubility (physchem; pH 3): >215.5 µg/mL; Solubility (physchem; pH 9): <215.5 µg/mL |
| CN(C)C(=O)NC1CCC(CCN2CCN(c3cccc(Cl)c3Cl)CC2)CC1 (centres unmarked) [Amorphous cariprazine embonate, cariprazine embonate] |  | 11940 ng/mL | 10300 ng/mL | 9580 ng/mL | 7080 ng/mL | 9900 ng/mL | Increase in impurities ([1]; high-temperature conditions): bigger increase in impurities |
| CN(C)C(=O)NC1CCC(CCN2CCN(c3cccc(Cl)c3Cl)CC2)CC1 (centres unmarked) [Crystalline form A of cariprazine embonate] | remained substantially unchanged | 1000 ng/mL | 3400 ng/mL | 4100 ng/mL | 3900 ng/mL | 2500 ng/mL | Crystalline form [3, 5]: its crystalline form did not change; Crystallinity [3, 5]: did not change significantly; Length of release among the crystalline forms ([4]; rats, single intramuscular injection 9 mg/kg): best length of release |
| CN(C)C(=O)N[C@H]1CC[C@H](CCN2CCN(c3cccc(Cl)c3Cl)CC2)CC1 [Cariprazine] |  |  |  |  |  |  | solubility at 24 h (physchem; pH 8, aqueous buffer): 1 µg/mL (≈ 2.34 µM); solubility at 24 h (physchem; water): ~180 µg/mL (≈ 421 µM) |
